Data reported in ChEMBL document CHEMBL3112525, “Synthesis and biological evaluation of 4-(1,2,3-triazol-1-yl)coumarin derivatives as potential antitumor agents” (Bioorg Med Chem Lett, 2014).

Assays:
[1] = tested on: MCF7; assay: Antiproliferative activity against human MCF7 cells after 48 hrs by MTT assay; assay type: functional, cell-based; settings: MCF7, 48 h
[2] = tested on: A549; assay: Antiproliferative activity against human A549 cells after 48 hrs by MTT assay; assay type: functional, cell-based; settings: A549, 48 h
[3] = tested on: SW480; assay: Antiproliferative activity against human SW480 cells after 48 hrs by MTT assay; assay type: functional, cell-based; settings: SW480, 48 h
[4] = tested on: MCF7; assay: Cell cycle arrest in human MCF7 cells assessed as accumulation at S phase at 5 uM after 48 hrs by flow cytometry (Rvb =31.40 %); assay type: functional
[5] = tested on: MCF7; assay: Cell cycle arrest in human MCF7 cells assessed as accumulation at G2/M phase at 5 uM after 48 hrs by flow cytometry (Rvb =15.78 %); assay type: functional
[6] = tested on: A549; assay: Induction of apoptosis in human A549 cells assessed as viable cells at after 48 hrs by annexin V-FITC and propidium iodide staining-based flow cytometry (reference value: 95.5 %); assay type: functional
[7] = tested on: A549; assay: Induction of apoptosis in human A549 cells assessed as late necrotic cells at after 48 hrs by annexin V-FITC and propidium iodide staining-based flow cytometry (reference value: 0.920 %); assay type: functional
[8] = tested on: A549; assay: Induction of apoptosis in human A549 cells assessed as early apoptotic cells at after 48 hrs by annexin V-FITC and propidium iodide staining-based flow cytometry (reference value: 0.720 %); assay type: functional
[9] = tested on: A549; assay: Induction of apoptosis in human A549 cells assessed as late apoptotic cells at after 48 hrs by annexin V-FITC and propidium iodide staining-based flow cytometry (reference value: 2.87 %); assay type: functional
[10] = tested on: MCF7; assay: Cell cycle arrest in human MCF7 cells assessed as accumulation at G1 phase at 5 uM after 48 hrs by flow cytometry (Rvb =52.82 %); assay type: functional

| Structure (SMILES) | IC50 [1] | IC50 [2] | IC50 [3] | also measured |
| --- | --- | --- | --- | --- |
| COC(=O)c1ccc(OCc2cn(-c3cc(=O)oc4ccc(Br)cc34)nn2)cc1 | 3.13 µM | 0.66 µM | 3.62 µM |  |
| CCOC(=O)c1ccc(OCc2cn(-c3c([N+](=O)[O-])cnc4ccc(Br)cc34)nn2)cc1 | 13.9 µM |  |  |  |
| O=c1cc(-n2cc(COc3ccc(F)cc3)nn2)c2cc(O)ccc2o1 | 4.62 µM | 2.01 µM | 2.72 µM |  |
| COc1ccc(CN2CCN(c3cc(=O)oc4ccccc34)CC2)cc1OC | > 50 µM | > 50 µM | > 50 µM |  |
| O=c1cc(-n2cc(COc3ccccc3)nn2)c2cc(OCCN3CCOCC3)ccc2o1 | > 50 µM | > 50 µM | > 50 µM |  |
| COC(=O)c1ccccc1OCc1cn(-c2cc(=O)oc3ccc(Br)cc23)nn1 | 34.1 µM | 5.25 µM | 20.2 µM |  |
| O=c1cc(-n2cc(COc3cccnc3)nn2)c2cc(Br)ccc2o1 | 39.8 µM | 24.8 µM | 39.8 µM |  |
| COc1cccc2c1C(=O)c1c(O)c3c(c(O)c1C2=O)C[C@@](O)(C(=O)CO)C[C@@H]3O[C@H]1C[C@H](N)[C@H](O)[C@H](C)O1 [DOXORUBICIN] | 3.51 µM | 1.65 µM | 2.43 µM |  |
| O=c1cc(-n2cc(COc3ccnc4ccc(Br)cc34)nn2)c2cc(Br)ccc2o1 | 41.6 µM | 13.3 µM | 16.9 µM |  |
| O=[N+]([O-])c1cnc2ccc(Br)cc2c1-n1cc(CSc2ccccc2)nn1 | 22.7 µM |  |  |  |
| COc1ccc2c(-n3cc(COc4ccc(F)cc4)nn3)cc(=O)oc2c1 | 5.89 µM | 0.52 µM | 1.99 µM | Activity [4]: 12.73%; Activity [5]: 84.21%; Activity [6]: 52.3%; Activity [7]: 12.3%; Activity [8]: 19.5%; Activity [9]: 15.9%; Activity [10]: 3.06% |
| O=c1cc(N2CCN(Cc3ccccc3)CC2)c2ccccc2o1 | > 50 µM | > 50 µM | > 50 µM |  |
| O=c1cc(-n2cc(-c3ccccc3)nn2)c2cc(Br)ccc2o1 | 9.45 µM | 11.2 µM | 6.66 µM |  |
| O=c1cc(-n2cc(COc3ccc(Br)cc3)nn2)c2cc(Br)ccc2o1 | 1.92 µM | 24.5 µM | 1.31 µM |  |
| O=c1cc(-n2cc(CSc3ccccc3)nn2)c2cc(Br)ccc2o1 | 36.8 µM | 3.51 µM | 15.4 µM |  |
| O=c1cc(-n2cc(COc3ccccc3)nn2)c2cc(O)ccc2o1 | > 50 µM | > 50 µM | > 50 µM |  |
| O=c1cc(-n2cc(COc3ccccc3)nn2)c2ccc(OS(=O)(=O)c3ccc(F)cc3)cc2o1 | > 50 µM | > 50 µM | > 50 µM |  |
| COc1ccc2oc(=O)cc(-n3cc(COc4ccc(F)cc4)nn3)c2c1 | 8.56 µM | 3.15 µM | 25.9 µM |  |

| Structure (SMILES) | IC50 [1] | IC50 [2] | IC50 [3] | also measured |
| --- | --- | --- | --- | --- |
| O=c1cc(-n2cc(COc3ccccc3O)nn2)c2cc(Br)ccc2o1 | 24.8 µM | 7.94 µM | 19.1 µM |  |
| CCc1ccc(OCc2cn(-c3cc(=O)oc4ccc(Br)cc34)nn2)cc1 | 12.7 µM | 11.6 µM | 10.8 µM |  |
| COc1ccc(CN2CCN(c3cc(=O)oc4ccccc34)CC2)cc1 | > 50 µM | > 50 µM | > 50 µM |  |
| O=c1cc(N2CCN(Cc3ccc(F)cc3)CC2)c2ccccc2o1 | > 50 µM | > 50 µM | > 50 µM |  |
| O=c1cc(N2CCN(Cc3ccccc3O)CC2)c2ccccc2o1 | > 50 µM | > 50 µM | > 50 µM |  |
| O=c1cc(-n2cc(COc3ccc(F)cc3)nn2)c2ccccc2o1 | 5.84 µM | 0.68 µM | 3.82 µM |  |
| O=c1cc(-n2cc(CNc3ccccc3)nn2)c2cc(Br)ccc2o1 | > 50 µM | 13.2 µM | 18.4 µM |  |
| O=[N+]([O-])c1cnc2ccc(Br)cc2c1-n1cc(COc2ccccc2)nn1 | 7.69 µM |  |  |  |
| O=c1cc(N2CCN(Cc3cccc(O)c3)CC2)c2ccccc2o1 | > 50 µM | > 50 µM | > 50 µM |  |
| O=c1cc(-n2cc(COc3ccc(C(F)(F)F)cc3)nn2)c2cc(Br)ccc2o1 | 11.4 µM | 1.62 µM | 3.09 µM |  |
| Nc1ccc(OCc2cn(-c3cc(=O)oc4ccc(Br)cc34)nn2)cc1 | 2.04 µM | 11.8 µM | 2.09 µM |  |
| CS(=O)(=O)Oc1ccc2c(-n3cc(COc4ccccc4)nn3)cc(=O)oc2c1 | 45.8 µM | 9.14 µM | 10.7 µM |  |
| COc1ccc(OCCN2CCN(c3cc(=O)oc4ccccc34)CC2)cc1 | 24.2 µM | 21.6 µM | 35 µM |  |
| O=c1cc(N2CCN(CCOc3ccc(F)cc3)CC2)c2ccccc2o1 | > 50 µM | 11.9 µM | 24 µM |  |
| O=c1cc(-n2cc(COc3ccccc3)nn2)c2cc(Br)ccc2o1 | 1.72 µM | 12.3 µM | 4.99 µM |  |
| O=c1cc(-n2cc(COc3ccc(F)cc3)nn2)c2cc(Br)ccc2o1 | 7 µM | 0.85 µM | 1.77 µM |  |
| O=c1cc(-n2cc(COc3ccccc3Br)nn2)c2cc(Br)ccc2o1 | 28.9 µM | 8.43 µM | 20.1 µM |  |
| COc1cc(CN2CCN(c3cc(=O)oc4ccccc34)CC2)ccc1O | > 50 µM | > 50 µM | > 50 µM |  |
